Data: PubChem BioAssay (NCI)
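Following 48 hours of exposure in 96-well plates, responses at five concentrations were used to interpolate endpoints linearly. The concentration for 50% growth inhibition is given as GI50. TGI denotes the concentration required for complete inhibition of growth.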

Columns and labels:
Assay in all cases: inhibition of tumour cell growth, NCI panel, 48 h
NCI-H460 lung = tested on: NCI-H460 lung
TK-10 renal = tested on: TK-10 renal
MDA-MB-231 breast = tested on: MDA-MB-231 breast
OVCAR-8 ovarian = tested on: OVCAR-8 ovarian
MOLT-4 leukemia = tested on: MOLT-4 leukemia
NCI-H522 lung = tested on: NCI-H522 lung
DU-145 prostate = tested on: DU-145 prostate
MCF7 breast = tested on: MCF7 breast
SNB-19 CNS = tested on: SNB-19 CNS
RXF 393 renal = tested on: RXF 393 renal
RPMI-8226 leukemia = tested on: RPMI-8226 leukemia
KM12 colon = tested on: KM12 colon
HCT-116 colon = tested on: HCT-116 colon
SW-620 colon = tested on: SW-620 colon
SNB-75 CNS = tested on: SNB-75 CNS
SK-MEL-28 melanoma = tested on: SK-MEL-28 melanoma
COLO 205 colon = tested on: COLO 205 colon
PC-3 prostate = tested on: PC-3 prostate
OVCAR-5 ovarian = tested on: OVCAR-5 ovarian
NCI/ADR-RES ovarian = tested on: NCI/ADR-RES ovarian
BT-549 breast = tested on: BT-549 breast
UACC-62 melanoma = tested on: UACC-62 melanoma
HS 578T breast = tested on: HS 578T breast
OVCAR-3 ovarian = tested on: OVCAR-3 ovarian
A549 NSCLC = tested on: A549 NSCLC
A498 renal = tested on: A498 renal
SK-MEL-2 melanoma = tested on: SK-MEL-2 melanoma
CAKI-1 renal = tested on: CAKI-1 renal
HOP-92 NSCLC = tested on: HOP-92 NSCLC
SK-MEL-5 melanoma = tested on: SK-MEL-5 melanoma
LOX IMVI melanoma = tested on: LOX IMVI melanoma
MDA-MB-468 breast = tested on: MDA-MB-468 breast
MDA-MB-435 = tested on: MDA-MB-435
MALME-3M melanoma = tested on: MALME-3M melanoma
SF-295 CNS = tested on: SF-295 CNS
M14 melanoma = tested on: M14 melanoma
UACC-257 melanoma = tested on: UACC-257 melanoma
HL-60(TB) leukemia = tested on: HL-60(TB) leukemia
NCI-H226 lung = tested on: NCI-H226 lung
ACHN renal = tested on: ACHN renal
HOP-62 NSCLC = tested on: HOP-62 NSCLC
SF-539 CNS = tested on: SF-539 CNS
CCRF-CEM leukemia = tested on: CCRF-CEM leukemia
UO-31 renal = tested on: UO-31 renal
IGROV1 ovarian = tested on: IGROV1 ovarian
T-47D breast = tested on: T-47D breast
SR leukemia = tested on: SR leukemia
HCC-2998 colon = tested on: HCC-2998 colon
SN12C renal = tested on: SN12C renal
NCI-H23 lung = tested on: NCI-H23 lung
K-562 leukemia = tested on: K-562 leukemia
U251 CNS = tested on: U251 CNS
EKVX NSCLC = tested on: EKVX NSCLC
HCT-15 colon = tested on: HCT-15 colon
786-0 renal = tested on: 786-0 renal
OVCAR-4 ovarian = tested on: OVCAR-4 ovarian
SF-268 CNS = tested on: SF-268 CNS
HT29 colon = tested on: HT29 colon
SK-OV-3 ovarian = tested on: SK-OV-3 ovarian

O=C(COc1ccc(/C=C2/C(=O)Nc3ccc(Cl)cc32)cc1)Nc1ccc(Br)cc1
GI50 (NCI-H460 lung): 1910 nM
TGI (NCI-H460 lung): 3.79 µM
GI50 (TK-10 renal): 2.74 µM
TGI (TK-10 renal): 5.51 µM
GI50 (MDA-MB-231 breast): 1360 nM
TGI (MDA-MB-231 breast): 2.88 µM
GI50 (OVCAR-8 ovarian): 1870 nM
TGI (OVCAR-8 ovarian): 3.93 µM
GI50 (MOLT-4 leukemia): 2610 nM
TGI (MOLT-4 leukemia): 8.48 µM
GI50 (NCI-H522 lung): 1710 nM
TGI (NCI-H522 lung): 4.64 µM
GI50 (DU-145 prostate): 2380 nM
TGI (DU-145 prostate): 6.52 µM
GI50 (MCF7 breast): 2030 nM
TGI (MCF7 breast): 7.86 µM
GI50 (SNB-19 CNS): 2720 nM
TGI (SNB-19 CNS): 8.08 µM
GI50 (RXF 393 renal): 1590 nM
TGI (RXF 393 renal): 3.24 µM
GI50 (RPMI-8226 leukemia): 4.04 µM
TGI (RPMI-8226 leukemia): 14.8 µM
GI50 (KM12 colon): 2470 nM
TGI (KM12 colon): 11.6 µM
GI50 (HCT-116 colon): 1550 nM
TGI (HCT-116 colon): 3.09 µM
GI50 (SW-620 colon): 1890 nM
TGI (SW-620 colon): 3.82 µM
GI50 (SNB-75 CNS): 5.09 µM
TGI (SNB-75 CNS): 20.3 µM
GI50 (SK-MEL-28 melanoma): 1980 nM
TGI (SK-MEL-28 melanoma): 5.02 µM
GI50 (COLO 205 colon): 4.61 µM
TGI (COLO 205 colon): 17.1 µM
GI50 (PC-3 prostate): 1790 nM
TGI (PC-3 prostate): 6.25 µM
GI50 (OVCAR-5 ovarian): 2290 nM
TGI (OVCAR-5 ovarian): 7.61 µM
GI50 (NCI/ADR-RES ovarian): 1770 nM
TGI (NCI/ADR-RES ovarian): 4.04 µM
GI50 (BT-549 breast): 1430 nM
TGI (BT-549 breast): 4.75 µM
GI50 (UACC-62 melanoma): 1350 nM
TGI (UACC-62 melanoma): 5.72 µM
GI50 (HS 578T breast): 2020 nM
TGI (HS 578T breast): 6.68 µM
GI50 (OVCAR-3 ovarian): 1700 nM
TGI (OVCAR-3 ovarian): 3.18 µM
GI50 (A549 NSCLC): 1520 nM
TGI (A549 NSCLC): 3.28 µM
GI50 (A498 renal): 7.37 µM
TGI (A498 renal): 19.6 µM
GI50 (SK-MEL-2 melanoma): 2580 nM
TGI (SK-MEL-2 melanoma): 10.8 µM
GI50 (CAKI-1 renal): 1470 nM
TGI (CAKI-1 renal): 3.58 µM
GI50 (HOP-92 NSCLC): 1610 nM
TGI (HOP-92 NSCLC): 3.83 µM
GI50 (SK-MEL-5 melanoma): 2140 nM
TGI (SK-MEL-5 melanoma): 5.47 µM
GI50 (LOX IMVI melanoma): 1360 nM
TGI (LOX IMVI melanoma): 2640 nM
GI50 (MDA-MB-468 breast): 10.3 µM
TGI (MDA-MB-468 breast): 22 µM
GI50 (MDA-MB-435): 3.45 µM
TGI (MDA-MB-435): 13.5 µM
GI50 (MALME-3M melanoma): 1500 nM
TGI (MALME-3M melanoma): 3.68 µM
GI50 (SF-295 CNS): 1740 nM
TGI (SF-295 CNS): 3.8 µM
GI50 (M14 melanoma): 1670 nM
TGI (M14 melanoma): 5.81 µM
GI50 (UACC-257 melanoma): 4.3 µM
TGI (UACC-257 melanoma): 16.5 µM
GI50 (HL-60(TB) leukemia): 3.51 µM
TGI (HL-60(TB) leukemia): 14.9 µM
GI50 (NCI-H226 lung): 1550 nM
TGI (NCI-H226 lung): 3.81 µM
GI50 (ACHN renal): 1200 nM
TGI (ACHN renal): 2.47 µM
GI50 (HOP-62 NSCLC): 1620 nM
TGI (HOP-62 NSCLC): 3.79 µM
GI50 (SF-539 CNS): 1590 nM
TGI (SF-539 CNS): 3.04 µM
GI50 (CCRF-CEM leukemia): 2110 nM
TGI (CCRF-CEM leukemia): 5.54 µM
GI50 (UO-31 renal): 221 nM
TGI (UO-31 renal): 2270 nM
GI50 (IGROV1 ovarian): 2240 nM
TGI (IGROV1 ovarian): 8.14 µM
GI50 (T-47D breast): 1.93 µM
TGI (T-47D breast): 7.56 µM
GI50 (SR leukemia): 2930 nM
TGI (SR leukemia): 12.1 µM
GI50 (HCC-2998 colon): 4.46 µM
TGI (HCC-2998 colon): 17.6 µM
GI50 (SN12C renal): 1750 nM
TGI (SN12C renal): 4.39 µM
GI50 (NCI-H23 lung): 1660 nM
TGI (NCI-H23 lung): 3.46 µM
GI50 (K-562 leukemia): 2110 nM
TGI (K-562 leukemia): 12.7 µM
GI50 (U251 CNS): 1750 nM
TGI (U251 CNS): 3.29 µM
GI50 (EKVX NSCLC): 1920 nM
TGI (EKVX NSCLC): 5.99 µM
GI50 (HCT-15 colon): 1400 nM
TGI (HCT-15 colon): 10.1 µM
GI50 (786-0 renal): 1780 nM
TGI (786-0 renal): 3.21 µM
GI50 (OVCAR-4 ovarian): 1850 nM
TGI (OVCAR-4 ovarian): 3.93 µM
GI50 (SF-268 CNS): 2420 nM
TGI (SF-268 CNS): 10.8 µM
GI50 (HT29 colon): 2870 nM
TGI (HT29 colon): 9.07 µM
GI50 (SK-OV-3 ovarian): 1490 nM
TGI (SK-OV-3 ovarian): 4.12 µM

COc1cccc2nc(Nc3cccc(NC(=O)c4ccc(CN5CCCN(C)CC5)c(C(F)(F)F)c4)c3)ccc12
GI50 (TK-10 renal): 4.91 µM
TGI (TK-10 renal): 19.3 µM
GI50 (MDA-MB-231 breast): 1830 nM
TGI (MDA-MB-231 breast): 3.4 µM
GI50 (OVCAR-8 ovarian): 2030 nM
TGI (OVCAR-8 ovarian): 4.75 µM
GI50 (DU-145 prostate): 2190 nM
TGI (DU-145 prostate): 4.91 µM
GI50 (MCF7 breast): 1590 nM
TGI (MCF7 breast): 3 µM
GI50 (SNB-19 CNS): 1720 nM
TGI (SNB-19 CNS): 3.17 µM
GI50 (RXF 393 renal): 1660 nM
TGI (RXF 393 renal): 3.24 µM
GI50 (KM12 colon): 2490 nM
TGI (KM12 colon): 6.14 µM
GI50 (SW-620 colon): 1750 nM
TGI (SW-620 colon): 3.24 µM
GI50 (SNB-75 CNS): 1.52 µM
TGI (SNB-75 CNS): 7.97 µM
GI50 (OVCAR-5 ovarian): 1710 nM
TGI (OVCAR-5 ovarian): 3.29 µM
GI50 (HS 578T breast): 2460 nM
TGI (HS 578T breast): 8.09 µM
GI50 (OVCAR-3 ovarian): 2140 nM
TGI (OVCAR-3 ovarian): 5.45 µM
GI50 (A498 renal): 13.5 µM
TGI (A498 renal): 31.4 µM
GI50 (SK-MEL-2 melanoma): 2150 nM
TGI (SK-MEL-2 melanoma): 4.93 µM
GI50 (SK-MEL-5 melanoma): 1710 nM
TGI (SK-MEL-5 melanoma): 3.08 µM
GI50 (MDA-MB-468 breast): 1.56 µM
TGI (MDA-MB-468 breast): 2.98 µM
GI50 (MALME-3M melanoma): 1720 nM
TGI (MALME-3M melanoma): 3.12 µM
GI50 (NCI-H226 lung): 1940 nM
TGI (NCI-H226 lung): 4.65 µM
GI50 (ACHN renal): 1870 nM
TGI (ACHN renal): 3.62 µM
GI50 (UO-31 renal): 1740 nM
TGI (UO-31 renal): 3430 nM
GI50 (T-47D breast): 5.43 µM
TGI (T-47D breast): 41.4 µM
GI50 (HCC-2998 colon): 1.71 µM
TGI (HCC-2998 colon): 3.09 µM
GI50 (NCI-H23 lung): 1680 nM
TGI (NCI-H23 lung): 3.07 µM
GI50 (EKVX NSCLC): 1720 nM
TGI (EKVX NSCLC): 3.1 µM
GI50 (HCT-15 colon): 1620 nM
TGI (HCT-15 colon): 3.03 µM
GI50 (786-0 renal): 1720 nM
TGI (786-0 renal): 3.35 µM
GI50 (OVCAR-4 ovarian): 2670 nM
TGI (OVCAR-4 ovarian): 10.7 µM
GI50 (SK-OV-3 ovarian): 4330 nM
TGI (SK-OV-3 ovarian): 21.3 µM
